The text below walks through data of PubChem BioAssay AID1259407 (Chemical Carcinogenesis Research Information System (CCRIS), 2018).

Active and inactive are the calls of the source. The rule behind the calls is not given here. Where a SMILES comes first, the peptide text is derived from it. The star is where a group is joined. For = O=C*

The test system of this series is CCRIS mutagenicity, Ames/micronucleus/aberration tests. Nature of the series: CCRIS mutagenicity studies.
The mark [1] stands for this setting: Test System: AMES SALMONELLA TYPHIMURIUM, Strain/Indicator: TA98, Metabolic Activation: NONE, Method: PREINCUBATION
The mark [2] stands for this setting: Test System: AMES SALMONELLA TYPHIMURIUM, Strain/Indicator: TA98, Metabolic Activation: NONE, Method: STANDARD PLATE.
Setting [3] is: Test System: AMES SALMONELLA TYPHIMURIUM, Strain/Indicator: TA98, Metabolic Activation: RAT, LIVER, S-9, AROCLOR 1254, Method: STANDARD PLATE.
Setting [4] is: Test System: AMES SALMONELLA TYPHIMURIUM, Strain/Indicator: TA100, Metabolic Activation: NONE, Method: STANDARD PLATE.
Setting [5] is: Test System: AMES SALMONELLA TYPHIMURIUM, Strain/Indicator: TA100, Metabolic Activation: RAT, LIVER, S-9, AROCLOR 1254, Method: STANDARD PLATE.
The mark [6] stands for this setting: Test System: AMES SALMONELLA TYPHIMURIUM, Strain/Indicator: TA1535, Metabolic Activation: NONE, Method: STANDARD PLATE.
[7] abbreviates: Test System: AMES SALMONELLA TYPHIMURIUM, Strain/Indicator: TA1535, Metabolic Activation: RAT, LIVER, S-9, AROCLOR 1254, Method: STANDARD PLATE.
The mark [8] stands for this setting: Test System: AMES SALMONELLA TYPHIMURIUM, Strain/Indicator: TA1537, Metabolic Activation: NONE, Method: STANDARD PLATE.
Setting [9] is: Test System: AMES SALMONELLA TYPHIMURIUM, Strain/Indicator: TA1537, Metabolic Activation: RAT, LIVER, S-9, AROCLOR 1254, Method: STANDARD PLATE.
Where [10] appears, read: Test System: AMES SALMONELLA TYPHIMURIUM, Strain/Indicator: TA102, Metabolic Activation: NONE, Method: STANDARD PLATE.

`O=C1c2ccccc2-c2cc([N+](=O)[O-])ccc21`: the mutagenic call reads like this: (Test System: AMES SALMONELLA TYPHIMURIUM, Strain/Indicator: TA98 (1,8-DNP6), Metabolic Activation: NONE, Method: PREINCUBATION) “active; positive”; (Test System: AMES SALMONELLA TYPHIMURIUM, Strain/Indicator: TA98(NR), Metabolic Activation: NONE, Method: PREINCUBATION) “active; positive”; (Test System: AMES SALMONELLA TYPHIMURIUM, Strain/Indicator: TA98(NR), Metabolic Activation: RAT LIVER S-9 (10%), Method: PREINCUBATION) “active; positive”; (Test System: AMES SALMONELLA TYPHIMURIUM, Strain/Indicator: TA98(NR), Metabolic Activation: RAT LIVER S-9, 3-METHYLCHOLANTHRENE (10%), Method: PREINCUBATION) “active; positive”; (Test System: AMES SALMONELLA TYPHIMURIUM, Strain/Indicator: TA98(NR), Metabolic Activation: RAT LIVER S-9, BETA-NAPHTHAFLAVONE (10%), Method: PREINCUBATION) “active; positive”; (Test System: AMES SALMONELLA TYPHIMURIUM, Strain/Indicator: TA98(NR), Metabolic Activation: RAT LIVER S-9, PCB (10%), Method: PREINCUBATION) “active; positive”. In addition, the mutagenic call was “active; positive” (Test System: AMES SALMONELLA TYPHIMURIUM, Strain/Indicator: TA98(NR), Metabolic Activation: RAT LIVER S-9, PHENOBARBITAL (10%), Method: PREINCUBATION); “active; positive” under setting [1]; “active; positive” under setting [2]; “active; positive” under setting [3]; “inactive; negative” under setting [4]; “inactive; negative” under setting [5]. Besides, the mutagenic call (Test System: AMES SALMONELLA TYPHIMURIUM, Strain/Indicator: TA7001, Metabolic Activation: NONE, Method: PREINCUBATION) is “inactive; negative”; the mutagenic call (Test System: AMES SALMONELLA TYPHIMURIUM, Strain/Indicator: TA7002, Metabolic Activation: NONE, Method: PREINCUBATION) is “active; positive”; the mutagenic call (Test System: AMES SALMONELLA TYPHIMURIUM, Strain/Indicator: TA7003, Metabolic Activation: NONE, Method: PREINCUBATION) is “active; positive”; the mutagenic call (Test System: AMES SALMONELLA TYPHIMURIUM, Strain/Indicator: TA7004, Metabolic Activation: NONE, Method: PREINCUBATION) was “active; positive”; the mutagenic call (Test System: AMES SALMONELLA TYPHIMURIUM, Strain/Indicator: TA7005, Metabolic Activation: NONE, Method: PREINCUBATION) was “active; positive”; the mutagenic call (Test System: AMES SALMONELLA TYPHIMURIUM, Strain/Indicator: TA7006, Metabolic Activation: NONE, Method: PREINCUBATION) is “active; positive”.

Regarding `COCOC`, the mutagenic call reads like this: (Test System: Mouse lymphoma, Strain/Indicator: L5178Y (tk+/tk-), Metabolic Activation: None, Method: Suspension/plate) “inactive; negative”; (Test System: Mouse lymphoma, Strain/Indicator: L5178Y (tk+/tk-), Metabolic Activation: Rat, Liver, S-9, Aroclor 1254, Method: Suspension/plate) “inactive; negative”.

Consider `CCCNC(=O)C=Cc1ccc([N+](=O)[O-])o1`, for which, under setting [1], the mutagenic call is “active; positive”.

For `O=C1c2ccccc2C(=O)c2c1cc(O)c(O)c2O`, the mutagenic call by setting is: under setting [2], “active; positive”; under setting [3], “active; positive”; under setting [6], “inactive; negative”; under setting [7], “inactive; negative”; under setting [8], “active; positive”; under setting [9], “active; positive”. The mutagenic call is “active; positive” (Test System: AMES SALMONELLA TYPHIMURIUM, Strain/Indicator: TA1538, Metabolic Activation: NONE, Method: STANDARD PLATE); “active; positive” (Test System: AMES SALMONELLA TYPHIMURIUM, Strain/Indicator: TA1538, Metabolic Activation: RAT, LIVER, S-9, AROCLOR 1254, Method: STANDARD PLATE); “inactive; negative” (Test System: AMES SALMONELLA TYPHIMURIUM, Strain/Indicator: TA1978, Metabolic Activation: NONE, Method: STANDARD PLATE); “inactive; negative” (Test System: AMES SALMONELLA TYPHIMURIUM, Strain/Indicator: TA1978, Metabolic Activation: RAT, LIVER, S-9, AROCLOR 1254, Method: STANDARD PLATE).

For the molecule `CCC(CCC(C)=O)COC(=O)CCCCC(=O)O` (stereo unspecified), the mutagenic call (Test System: AMES SALMONELLA TYPHIMURIUM, Strain/Indicator: TA97, Metabolic Activation: NONE, Method: STANDARD PLATE) was “inactive; negative”; the mutagenic call (Test System: AMES SALMONELLA TYPHIMURIUM, Strain/Indicator: TA97, Metabolic Activation: RAT, LIVER, S-9, AROCLOR 1254, Method: STANDARD PLATE) was “inactive; negative”; the mutagenic call (Test System: AMES SALMONELLA TYPHIMURIUM, Strain/Indicator: TA97, Metabolic Activation: RAT, LIVER, S-9, DI(2-ETHYLHEXYL)PHTHALATE, Method: STANDARD PLATE) is “inactive; negative”; the mutagenic call under setting [2] was “inactive; negative”; the mutagenic call under setting [3] was “inactive; negative”; the mutagenic call (Test System: AMES SALMONELLA TYPHIMURIUM, Strain/Indicator: TA98, Metabolic Activation: RAT, LIVER, S-9, DI(2-ETHYLHEXYL)PHTHALATE, Method: STANDARD PLATE) is “inactive; negative”. Also, the mutagenic call runs as follows: under setting [4], “inactive; negative”; under setting [5], “inactive; negative”; (Test System: AMES SALMONELLA TYPHIMURIUM, Strain/Indicator: TA100, Metabolic Activation: RAT, LIVER, S-9, DI(2-ETHYLHEXYL)PHTHALATE, Method: STANDARD PLATE) “inactive; negative”; under setting [10], “inactive; negative”; (Test System: AMES SALMONELLA TYPHIMURIUM, Strain/Indicator: TA102, Metabolic Activation: RAT, LIVER, S-9, AROCLOR 1254, Method: STANDARD PLATE) “inactive; negative”; (Test System: AMES SALMONELLA TYPHIMURIUM, Strain/Indicator: TA102, Metabolic Activation: RAT, LIVER, S-9, DI(2-ETHYLHEXYL)PHTHALATE, Method: STANDARD PLATE) “inactive; negative”.

Take `COO`: the mutagenic call reads like this: under setting [4], “inactive; negative”; under setting [10], “active; positive”.

For `CSCC[C@H](NC=O)C(=O)N[C@@H](Cc1ccccc1)C(=O)O` (For-Met-Phe-OH), the mutagenic call under setting [2] was “inactive; negative”; the mutagenic call under setting [3] was “inactive; negative”; the mutagenic call under setting [4] was “inactive; negative”; the mutagenic call under setting [5] was “inactive; negative”; the mutagenic call under setting [6] is “inactive; negative”; the mutagenic call under setting [7] was “inactive; negative”. In addition, the mutagenic call by setting is: under setting [8], “inactive; negative”; under setting [9], “inactive; negative”.

For `O=CN(O)c1ccc2ccccc2c1`, the mutagenic call under setting [1] is “active; positive”; the mutagenic call (Test System: AMES SALMONELLA TYPHIMURIUM, Strain/Indicator: TA98, Metabolic Activation: RAT, LIVER, CYTOSOL, Method: PREINCUBATION) is “active; positive”; the mutagenic call (Test System: AMES SALMONELLA TYPHIMURIUM, Strain/Indicator: TA98, Metabolic Activation: RAT, LIVER, MICROSOMES, Method: PREINCUBATION) was “active; positive”.
